In patent publication US20160158200A1, “Combinations of Hepatitis C Virus Inhibitors” (priority 2013, published 2016):

System: HCV genotype-1a variant with glutamine 30 changed to glutamate in the NS5A protein
Format: cell-based
Details: test compound titrated with BMS-790052 fixed at 200 nM; genotype 1a Q30E replicon
In short: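 Synergy was assessed by combining several fixed amounts of an NS5A-targeting compound with a titration of the second compound of interest.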

Row | Compound | Fold-Synergistic 1a (Q30E) [fold]
1 | CC(C)[C@H](NC(=O)C1CCCCO1)c1ncc(-c2ccc(-c3ccc(-c4cnc([C@@H](NC(=O)C5CCCCO5)C(C)C)[nH]4)cc3)cc2)[nH]1 (single isomer, unassigned) [Compound Y-57] | >100
2 | CC(C)[C@H](N[S+]([O-])C(C)(C)C)c1ncc(-c2ccc(-c3ccc(-c4cnc([C@@H](N[S+]([O-])C(C)(C)C)C(C)C)[nH]4)cc3)cc2)[nH]1 (single isomer, unassigned) [Compound Y-59] | >100
3 | CC1(C(=O)NC(c2nc(-c3ccc(-c4ccc(-c5c[nH]c(C(NC(=O)C6(C)CCC(F)(F)CO6)C(C)(C)C)n5)cc4)cc3)c[nH]2)C(C)(C)C)CCC(F)(F)CO1 (single isomer, unassigned) [Compound Y-67B] | >100
4 | CC1(C(=O)N[C@H](c2nc(-c3ccc(-c4ccc(-c5c[nH]c([C@@H](NC(=O)C6(C)CCCCC6O)C(C)(C)C)n5)cc4)cc3)c[nH]2)C(C)(C)C)CCCCC1O (single isomer, unassigned) [Compound Y-93] | >100
5 | CC1(C(=O)N[C@H](c2nc(-c3ccc(-c4ccc(-c5c[nH]c([C@@H](NC(=O)C6(C)CCCCC6O)C(C)(C)C)n5)cc4)cc3)c[nH]2)C(C)(C)C)CCCCC1O (single isomer, unassigned) [Compound Y-94] | >100
6 | CC(C)(C)[C@H](NC(=O)C1CC12CCC(F)(F)CC2)c1nc(-c2ccc(-c3ccc(-c4c[nH]c([C@@H](NC(=O)C5CC56CCC(F)(F)CC6)C(C)(C)C)n4)cc3)cc2)c[nH]1 (single isomer, unassigned) [Compound Y-95] | >100
7 | CC1(C(=O)N[C@H](c2nc(-c3ccc(-c4ccc(-c5c[nH]c([C@@H](NC(=O)C6(C)CCCCC6O)C(C)(C)C)n5)cc4)cc3)c[nH]2)C(C)(C)C)CCCCC1O (single isomer, unassigned) [Compound Y-104] | >100
8 | CC1(C(=O)N[C@H](c2nc(-c3ccc(-c4ccc(-c5c[nH]c([C@@H](NC(=O)C6(C)CCCCC6O)C(C)(C)C)n5)cc4)cc3)c[nH]2)C(C)(C)C)CCCCC1O (single isomer, unassigned) [Compound Y-105] | >100
9 | CC1(C(=O)N[C@H](c2nc(-c3ccc(-c4ccc(-c5c[nH]c([C@@H](NC(=O)C6(C)CCCCC6O)C(C)(C)C)n5)cc4)cc3)c[nH]2)C(C)(C)C)CCCCC1O (single isomer, unassigned) [Compound Y-106] | >100
10 | CC1(C)C2CCC(C(=O)N[C@H](c3nc(-c4ccc(-c5ccc(-c6c[nH]c([C@@H](NC(=O)C78CCC(C7)C(C)(C)C8O)C(C)(C)C)n6)cc5)cc4)c[nH]3)C(C)(C)C)(C2)C1O (single isomer, unassigned) [Compound Y-107] | >100
11 | CC(C)(C)[C@H](NC(=O)C1(CO)CCCO1)c1nc(-c2ccc(-c3ccc(-c4c[nH]c([C@@H](NC(=O)C5(CO)CCCO5)C(C)(C)C)n4)cc3)cc2)c[nH]1 (single isomer, unassigned) [Compound Y-110] | >100
12 | CC(C)(C)[C@H](NC(=O)C1(CO)CCCO1)c1nc(-c2ccc(-c3ccc(-c4c[nH]c([C@@H](NC(=O)C5(CO)CCCO5)C(C)(C)C)n4)cc3)cc2)c[nH]1 (single isomer, unassigned) [Compound Y-111] | >100
13 | CC(C)(C)[C@H](NC(=O)C1(CO)CCCO1)c1nc(-c2ccc(-c3ccc(-c4c[nH]c([C@@H](NC(=O)C5(CO)CCCO5)C(C)(C)C)n4)cc3)cc2)c[nH]1 (single isomer, unassigned) [Compound Y-112] | >100
14 | CC(C)[C@H](NC(=O)C12CCC(C1)C(C)(C)C2O)c1nc(-c2ccc(-c3ccc(-c4c[nH]c([C@@H](NC(=O)C56CCC(C5)C(C)(C)C6O)C(C)C)n4)cc3)cc2)c[nH]1 (single isomer, unassigned) [Compound Y-113] | >100
15 | CC(C)[C@H](NC(=O)C12CCC(C1)C(C)(C)C2O)c1nc(-c2ccc(-c3ccc(-c4c[nH]c([C@@H](NC(=O)C56CCC(C5)C(C)(C)C6O)C(C)C)n4)cc3)cc2)c[nH]1 (single isomer, unassigned) [Compound Y-114] | >100
16 | CC(C)[C@H](NC(=O)C12CCC(C1)C(C)(C)C2O)c1nc(-c2ccc(-c3ccc(-c4c[nH]c([C@@H](NC(=O)C56CCC(C5)C(C)(C)C6O)C(C)C)n4)cc3)cc2)c[nH]1 (single isomer, unassigned) [Compound Y-115] | >100
17 | CC1(C)C2CCC(C(=O)N[C@H](c3nc(-c4ccc(-c5ccc(-c6c[nH]c([C@@H](NC(=O)C78CCC(C7)C(C)(C)C8O)C7(C)CC7)n6)cc5)cc4)c[nH]3)C3(C)CC3)(C2)C1O (single isomer, unassigned) [Compound Y-117] | >100
18 | CC1(C)C2CCC(C(=O)N[C@H](c3nc(-c4ccc(-c5ccc(-c6c[nH]c([C@@H](NC(=O)C78CCC(C7)C(C)(C)C8O)C7(C)CC7)n6)cc5)cc4)c[nH]3)C3(C)CC3)(C2)C1O (single isomer, unassigned) [Compound Y-118] | >100

Row | Compound | Fold-Synergistic 1a (Q30E) [fold]
19 | CC1(C)C2CCC(C(=O)N[C@H](c3nc(-c4ccc(-c5ccc(-c6c[nH]c([C@@H](NC(=O)C78CCC(C7)C(C)(C)C8O)C7(C)CC7)n6)cc5)cc4)c[nH]3)C3(C)CC3)(C2)C1O (single isomer, unassigned) [Compound Y-119] | >100
20 | CC(C)(C)[C@H](NC(=O)C1CCC(F)(F)CC1)c1ncc(C#Cc2ccc3cc(-c4cnc([C@@H](NC(=O)C5CCC(F)(F)CC5)C(C)(C)C)[nH]4)ccc3c2)[nH]1 [Compound B1] | >100
21 | CC(C)(C)C(=O)N[C@H](c1ncc(C#Cc2ccc3cc(-c4cnc([C@@H](NC(=O)C(C)(C)C)C(C)(C)C)[nH]4)ccc3c2)[nH]1)C(C)(C)C [Compound B2] | >100
22 | CC(C)(C)[C@H](NC(=O)c1cccc(Cl)c1)c1ncc(C#Cc2ccc3cc(-c4cnc([C@@H](NC(=O)c5cccc(Cl)c5)C(C)(C)C)[nH]4)ccc3c2)[nH]1 [Compound B3] | >100
23 | CC(C)(C)[C@H](NC(=O)C(C)(C)C1(O)CCC(F)(F)CC1)c1ncc(C#Cc2ccc3cc(-c4cnc([C@@H](NC(=O)C(C)(C)C5(O)CCC(F)(F)CC5)C(C)(C)C)[nH]4)ccc3c2)[nH]1 [Compound B5A] | >100
24 | CC(C)(C)[C@H](NC(=O)C1(C2(O)CCC(F)(F)CC2)CC1)c1ncc(C#Cc2ccc3cc(-c4cnc([C@@H](NC(=O)C5(C6(O)CCC(F)(F)CC6)CC5)C(C)(C)C)[nH]4)ccc3c2)[nH]1 [Compound B5B] | >100
25 | COC(=O)N(C)C1(C(=O)N[C@H](c2ncc(C#Cc3ccc4cc(-c5cnc([C@@H](NC(=O)C6(N(C)C(=O)OC)CC6)C(C)(C)C)[nH]5)ccc4c3)[nH]2)C(C)(C)C)CC1 [Compound B5] | >100
26 | CC(C)(C)[C@H](NC(=O)C1CCC(F)(F)CC1)c1ncc(CCc2ccc3cc(-c4cnc([C@@H](NC(=O)C5CCC(F)(F)CC5)C(C)(C)C)[nH]4)ccc3c2)[nH]1 [Compound B6] | >100
27 | CC(C)(C)[C@H](NC(=O)C1CCC(F)(F)CC1)c1nc(-c2ccc(-c3ccc4c(c3)CCc3nc([C@@H](NC(=O)C5CCC(F)(F)CC5)C(C)(C)C)[nH]c3-4)cc2)c[nH]1 [Compound B10] | >100
28 | CC(C)(C)[C@H](NC(=O)C1(C2(O)CCC(F)(F)CC2)CC1)c1nc(-c2ccc(-c3ccc4c(c3)CCc3nc([C@@H](NC(=O)C5(C6(O)CCC(F)(F)CC6)CC5)C(C)(C)C)[nH]c3-4)cc2)c[nH]1 [Compound B13B] | >100
29 | CC(C)(C)[C@H](NC(=O)C1CCC(F)(F)CC1)c1ncc(-c2ccc(-c3ccc4c(ccc5nc([C@@H](NC(=O)C6CCC(F)(F)CC6)C(C)(C)C)[nH]c54)c3)cc2)[nH]1 [Compound B17] | >100
30 | CC(C)(C)[C@H](NC(=O)C1CCC(F)(F)CC1)c1nc2c([nH]1)-c1ccc(-c3ccc4c(c3)CCc3nc([C@@H](NC(=O)C5CCC(F)(F)CC5)C(C)(C)C)[nH]c3-4)cc1CC2 [Compound B23] | >100
31 | CC(C)(C)[C@H](NC(=O)C1CCC(F)(F)CC1)c1nc2c([nH]1)-c1ccc(-c3ccc4c(ccc5nc([C@@H](NC(=O)C6CCC(F)(F)CC6)C(C)(C)C)[nH]c54)c3)cc1CC2 [Compound B24] | >100
32 | CC(C)(C)[C@H](NC(=O)C1CCC(F)(F)CC1)c1nc2ccc3cc(-c4ccc5c(ccc6nc([C@@H](NC(=O)C7CCC(F)(F)CC7)C(C)(C)C)[nH]c65)c4)ccc3c2[nH]1 [Compound B25] | >100
33 | CC(C)(C)[C@H](NC(=O)C1CCC(F)(F)CC1)c1ncc(-c2ccc3cc4cc(-c5cnc([C@@H](NC(=O)C6CCC(F)(F)CC6)C(C)(C)C)[nH]5)ccc4cc3c2)[nH]1 [Compound B26] | >100
34 | CC(C)(C)C(=O)N[C@H](c1ncc(-c2ccc3cc4cc(-c5cnc([C@@H](NC(=O)C(C)(C)C)C(C)(C)C)[nH]5)ccc4cc3c2)[nH]1)C(C)(C)C [Compound B27] | >100
35 | CC(=O)c1ccc2cc3cc(-c4cnc([C@@H](NC(=O)C5CCC(F)(F)CC5)C(C)(C)C)[nH]4)ccc3cc2c1 [Compound B28] | >100
36 | CC(C)[C@H](NC(=O)C1CCC(F)(F)CC1)c1ncc(-c2ccc3cc4cc(-c5cnc([C@@H](NC(=O)C6CCC(F)(F)CC6)C(C)C)[nH]5)ccc4cc3c2)[nH]1.O=C(O)C(F)(F)F [Compound B29] | >100
